Experimental data: patent EP2547369B1, “A NA[…] MICELLE FORMED BY AN A[…]-COPOLYMER AND ENCAPSULATING A […]” (King Saud University, priority 2010, dated 2011)

Experiments:
[1] = cited from earlier work
[2] = test system: MCF-7 breast cancer cell line; experiment: MTT assay, cytotoxicity of Gd(III) complex on MCF-7; type: cell-based, human
Excerpt: (§1) The present inventors also evaluated the cytotoxicity of Gd(III) complexes using the MTT assay, another method measuring cell viability, on the Jurkat and MCF-7 cell lines (Figure 9 and 11). […] In order to estimate the concentration of Gd (III) complexes able to reduce cell viability by 50% (IC50), the present inventors plotted a linear regression line for each used cell line (Figure 10). […] It appears thus that Jurkat cells are slightly more susceptible to Gd (III) complexes than MCF-7 cells.
Two different cell lines were used to assess Gd(III) cytotoxicity: Jurkat, and MCF-7. Jurkat cells were seeded on two 96-well culture plates (BD Falcon) (50 µl in each well with a concentration of 4x10^5 cells/mL). […] Each test was repeated eight times. As a negative control, cells were treated with ethanol (96%) (the same amount of ethanol present in the cells treated with a highest concentration of Gd(III) complex). Incubation was carried out for 3 days. In this experiment the toxicity of Gd(III) complex was evaluated by the 3-(4, 5-dimethylthiazol-2-yl)-2, 5-diphenyl tetrazolium bromide (MTT) assay. At the end of each incubation time 10 µl of 5 mg/mL MTT solution (AppliChem) were added to each well followed by further incubation for 4h. Then, 100 µl of 0.04 N HCL in isopropanol (BDH Prolabo) were added to the wells and formazan crystals were allowed to solubilize for 1 hour at room temperature. The formazan concentration was quantified using a spectrophotometer (Tecan Infinite M200 monochromator-based multi-function microplate reader) by measuring the absorbance at 570 nm and 630 nm. The final optical density (OD) obtained from formazan formation was calculated with the following formula: OD=L(570nm)-L(630nm). The toxicity was assessed by calculating the % of cell survival in relation to the control untreated group. The procedure described above was repeated for the MCF-7 cell line, after being seeded at 5 × 10^3 cells per each well and allowed to attach for 24h.

[3] = test system: Jurkat human leukemia cell line; experiment: MTT assay, cytotoxicity of free and micelle-encapsulated Gd(III) complex on Jurkat; type: cell-based; conditions: 3 days; for cytotoxicity: 50 µM
Excerpt: as §1
To compare the cytotoxicity of free and micelle-encapsulated Gd(III) complexes and to verify if the time of dialysis influences polymeric micelle cytotoxicity, the present inventors performed again the MTT assay on Jurkat cells. The cells were treated with incremental concentrations of the free and micelle-encapsulated Gd(III) complexes.
Two different cell lines were used to assess Gd(III) cytotoxicity: Jurkat, and MCF-7. Jurkat cells were seeded on two 96-well culture plates (BD Falcon) (50 µl in each well with a concentration of 4x10^5 cells/mL). Different concentrations (5 µM, 10 µM, 15 µM and 20 µM) of Gd(III) complex solution, diluted in 50 µl of RPMI-1640, were used. Each test was repeated eight times. As a negative control, cells were treated with ethanol (96%) (the same amount of ethanol present in the cells treated with a highest concentration of Gd(III) complex). Incubation was carried out for 3 days. In this experiment the toxicity of Gd(III) complex was evaluated by the 3-(4, 5-dimethylthiazol-2-yl)-2, 5-diphenyl tetrazolium bromide (MTT) assay. At the end of each incubation time 10 µl of 5 mg/mL MTT solution (AppliChem) were added to each well followed by further incubation for 4h. Then, 100 µl of 0.04 N HCL in isopropanol (BDH Prolabo) were added to the wells and formazan crystals were allowed to solubilize for 1 hour at room temperature. The formazan concentration was quantified using a spectrophotometer (Tecan Infinite M200 monochromator-based multi-function microplate reader) by measuring the absorbance at 570 nm and 630 nm. The final optical density (OD) obtained from formazan formation was calculated with the following formula: OD=L(570nm)-L(630nm). The toxicity was assessed by calculating the % of cell survival in relation to the control untreated group. […]
To assess Gd(III) complex-loaded polymeric micelle cytoxicity and to compare it with the toxicity from free Gd(III) complex, Jurkat cells were seeded on a 96-well culture plate (50 µl in each well with a concentration of 4x10^5 cells/mL). […] The cytotoxicity of Gd(III) complex and Gd(III) complex-loaded polymeric micelles was evaluated by the MTT assay following the procedure mentioned on 8.2.

[4] = test system: Jurkat cell line; experiment: Cell count with Trypan Blue, cytotoxicity of Gd(III) complex; type: cell-based, human; conditions: 3 days
Procedure: The MCF-7, MDA-MB-468, HeLa, 293T; ARPE19; D407 and S17 adherent cell lines were maintained in DMEM medium (LONZA) supplemented with 10% fetal bovine serum (FBS) (PAA), glutamine (200 mM), penicillin (10000 units/mL) and streptomycin (10000 µg/mL) from LONZA. All cell culture incubations were performed at 37°C under humidified atmosphere of 5% CO2. The Jurkat and DND41 suspension cell lines were maintained in RPMI 1640 medium (LONZA) supplemented as above. Cells were thawed at 37°C and pipetted into 10 mL of prewarmed medium. The cells were centrifuged at 300 g for 5 minutes to remove dimethylsulfoxide (DMSO) (Merck). Then, the supernatant was discarded and the pellet resuspended in 2 mL of fresh medium. The cells were placed into T25 flasks (Nunc) and 8 mL of medium was added for a final volume of 10 mL. The medium was changed every 2 days. […] The hemocytometer Neubauer chamber (Hausser Scientific) was filled with the cell suspension and uncolored viable cells were counted on an inverted light microscope (Leica DM IL). The cells were counted in four 1 mm^2 squares. The equation to calculate the cell number per cubic millimeter is the following: Number of cells counted per square millimeter × dilution used × 10. […]

## Cc1ccc2ccc3cccc4ccc1c2c34 [1-methylpyrene]
[1]
  solubility in aqueous media: ca. 10^-7 M

## tetraaquodichloro(4,4'-ditBu-2,2'-bipyridine) gadolinium(III) chloride [Gd(III) complexes]
[2]; 10 µM, MTT, 3 days, MCF-7
  toxicity (number of viable cells): toxic
[2]; 50 µM, 3 days, MCF-7 cells as printed
  toxicity: overall cell death
[2]; MCF-7, 3 days, MTT, from linear regression line, read-out: IC50 (concentration able to reduce cell viability by 50%)
  IC50: 12.8 µM
[3]; 10 µM
  toxicity (number of viable cells): toxic
[3]
  cytotoxicity: kill all cells
[3]; listed as free Gd(III) complexes
  cytotoxicity: killed almost all cells
[3]; from linear regression line, read-out: IC50 (concentration able to reduce cell viability by 50%)
  IC50: 10.2 µM
[4]; 10 µM
  toxicity by cell count: less toxic
[4]; 50 µM
  toxicity by cell count: very toxic
